Read-outs that look alike come from different tables or passages of the source.
System: cocaine aptamer
Details: for Kd: read-out: dissociation constant Kd

Row | Structure (SMILES) | ITC heat generation (Comparative Example 2: 1 mM tropine titrated into 50 μM cocaine aptamer in D-PBS(−)) | ITC heat generation (Comparative Example 3: 1 mM tropine titrated into 50 μM cocaine aptamer in D-PBS(−) containing 10 μM methyl benzoate) | Kd (Comparative Example 1: 1 mM methyl benzoate titrated into 50 μM cocaine aptamer in D-PBS(−), no tropane derivative, binding order 1) [µM] | Kd (Example 1: 1 mM methyl benzoate titrated into 50 μM cocaine aptamer in D-PBS(−) containing 10 μM tropine) [µM]
1 | CN1[C@@H]2CC[C@H]1C[C@@H](O)C2 [tropine] | no heat generation was observed | no heat generation was observed |  | 
2 | COC(=O)c1ccccc1 [methyl benzoate] |  |  | 87.7 | 69.7
